Measured values taken from BindingDB's records for doi:10.1021/jm00164a028 (Wyeth Research, 1990).
pIC50: −log10 of the molar value.

These molecules were tested against Thromboxane-A synthase (Oryctolagus cuniculus) (assay: Inhibition of Thromboxane A2 synthetase in rabbit platelets).

Row | SMILES | pIC50
1 | CCOC(=O)C1=C(Cn2ccnc2)N=C(C)C(C(=O)OC)C1c1cccc(C(F)(F)F)c1Cl (stereo not drawn) | 4.80
2 | CCOC(=O)C1=C(Cn2ccnc2)N=C(C)C(C(=O)OC)C1c1ccccc1[N+](=O)[O-] (stereo not drawn) | 5.49
3 | CCOC(=O)C1=C(CCn2ccnc2)N=C(C)C(C(=O)OCC)C1c1cccc([N+](=O)[O-])c1 (stereo not drawn) | 4.96
4 | CCOC(=O)C1=C(Cn2ccnc2)N=C(C)C(C(=O)OC)C1c1cccc([N+](=O)[O-])c1 (stereo not drawn) | 5.30
5 | CCOC(=O)C1=C(COCCn2ccnc2)N=C(C)C(C(=O)OC)C1c1cccc([N+](=O)[O-])c1 (stereo not drawn) | 3.94
6 | CCOC(=O)C1=C(Cn2ccnc2)N=C(C)C(C(=O)OCC)C1c1cccc([N+](=O)[O-])c1 (stereo not drawn) | 5.85
7 | CCOC(=O)C1=C(Cn2ccnc2)N=C(C)C(C(=O)OC(C)C)C1c1cccc([N+](=O)[O-])c1 (stereo not drawn) | 5.70
8 | CCOC(=O)C1=C(Cn2ccnc2)N=C(C)C(C(=O)OC(C)(C)C)C1c1cccc([N+](=O)[O-])c1 (stereo not drawn) | 4.64
